Measurements taken from US20170081357A1, “[…] ACTIVE 17-NITROGEN SUBSTITUTED ESTRATREINTHIAZOLE DERIVATIVES AS INHIBITORS OF 17.BETA-HYDROXYSTEROID DEHYDROGENASE” (FORENDO PHARMA LTD, priority 2013, published 2017).

Legend:
[1] = target: T1, recombinant human 17β-HSD1 (Homo sapiens, UniProt P14061); experiment: Inhibition of recombinant human 17β-HSD1 (conversion of 3H-estrone to estradiol, HPLC); format: biochemical; conditions: inhibitor 1 μM; 30 nM estrone, 1 mM NADPH, 30 min at RT; read-out: 17β-HDS1 Inhibition % at 1 μM
T1 construct: made in house; host or cells: Sd9 (Sf9) insect cells, baculovirus (Bac to Bac Expression System); microsomal fraction
T1 sequence (P14061 1-328): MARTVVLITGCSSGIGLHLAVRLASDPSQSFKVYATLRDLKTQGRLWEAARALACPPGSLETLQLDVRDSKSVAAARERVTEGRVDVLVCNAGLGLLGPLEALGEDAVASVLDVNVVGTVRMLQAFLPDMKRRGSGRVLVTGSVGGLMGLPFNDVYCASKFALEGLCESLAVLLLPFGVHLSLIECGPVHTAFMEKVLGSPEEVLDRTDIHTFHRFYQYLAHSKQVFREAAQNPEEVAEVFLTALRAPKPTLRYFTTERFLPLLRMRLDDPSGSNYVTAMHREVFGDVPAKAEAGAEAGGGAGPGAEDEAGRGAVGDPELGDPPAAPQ
Protocol: 17β-HSD1 production and isolation: Recombinant baculovirus was generated by the “Bac to Bac Expression System” (Invitrogen). Recombinant bacmid was transfected to Sd9 insect cells using “Cellfectin Reagent” (Invitrogen). 60 h later cells were harvested; the microsomal fraction was isolated as described by Puranen, T. J., Poutanen, M. H., Peltoketo, H. E., Vihko, P. T. and Vihko, R. K. (1994) Site-directed mutagenesis of the putative active site of human 17 β-hydroxysteroid dehydrogenase type 1. Biochem. J. 304: 289-293. Aliquots were stored frozen until determination of enzymatic activity.
Assay—Inhibition of recombinant human 17β-HSD1: Recombinant protein (1 μg/ml) was incubated in 20 mM KH2PO4 pH 7.4 with 30 nM estrone (including 800 000 cpm/ml of ^3H-estrone) and 1 mM NADPH for 30 min at RT, in the presence of the potential inhibitor at concentrations 1 μM or 0.1 μM. Inhibitor stock solutions were prepared in DMSO. Final concentration of DMSO was adjusted to 1% in all samples. The enzyme reaction was stopped by addition of 10% trichloroacetic acid (final concentration). Samples were centrifuged in a microtiter plate at 4000 rpm for 10 min. Supernatants were applied to reverse phase HPLC on a Waters Symmetry C18 column, equipped with a Waters Sentry Guard column. Isocratic HPLC runs were performed at RT at a flow rate of 1 ml/min in acetonitrile:water 48:52 as running solvent. Radioactivity was monitored in the eluate by a Packard Flow Scintillation Analyzer. Total radioactivity for estrone and estradiol were determined in each sample and percent conversion of estrone to estradiol was calculated according to the following formula:
(§1) Percent inhibition was calculated flowingly: % inhibition=100−% conversion

[2] = target: T2, recombinant human 17β-HSD2 (Homo sapiens, UniProt P37059); experiment: Inhibition of recombinant human 17β-HSD2 (conversion of 3H-estradiol to estrone, HPLC); format: biochemical; conditions: inhibitor 1 μM; 50 nM estradiol, 1 mM NADH, 30 min at RT
T2 construct: made in house; host or cells: Sd9 (Sf9) insect cells, baculovirus (Bac to Bac Expression System); fractionated cell extract
T2 sequence (P37059 1-387): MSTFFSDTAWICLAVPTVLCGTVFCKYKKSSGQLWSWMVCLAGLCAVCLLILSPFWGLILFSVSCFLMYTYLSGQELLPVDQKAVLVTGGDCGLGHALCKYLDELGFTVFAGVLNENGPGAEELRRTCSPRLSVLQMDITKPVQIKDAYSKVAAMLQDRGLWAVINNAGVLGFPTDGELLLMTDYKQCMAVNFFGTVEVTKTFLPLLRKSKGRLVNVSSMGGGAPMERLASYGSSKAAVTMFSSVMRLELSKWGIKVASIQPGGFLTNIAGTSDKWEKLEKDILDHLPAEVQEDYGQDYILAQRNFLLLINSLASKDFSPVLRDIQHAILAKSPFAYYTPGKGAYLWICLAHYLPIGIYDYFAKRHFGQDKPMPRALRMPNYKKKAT
Protocol: 17β-HSD2 production and isolation: Similarly to 17β-HSD1 the Recombinant baculovirus was generated by the “Bac to Bac Expression System” (Invitrogen). Recombinant bacmid was transfected to Sd9 insect cells using “Cellfectin Reagent” (Invitrogen). 60 h later cells were harvested and supernatant were fractionated by the following protocol: • cells were dissolved into 40 ml of A-buffer (40 mM TRIS, pH8.0, 20% glycerol, 20 μM NAD, 0.4 mM PMSF, 150 mM NaCl, 0.5% dodecyl-β-maltoside+protease inhibitor cocktail) • cells were sonicated • lysate was incubated on ice for 15 min • lysate was centrifuged 5000 rpm 15 min, +4° C. • centrifugation of the supernatant 180 000 g 30 min, +4° C. • pellet was dissolved into 8 ml of A-buffer • not resuspended material was removed by centrifugation 5000 rpm 15 min, +4° C. • the clear supernatant was divided into 100 μl aliquots and were stored frozen until determination of enzymatic activity.
The amount of 17β-HSD2 was analysed by immunoblotting and total protein concentration of each extract batch was determined.
Assay—Inhibition of recombinant human 17β-HSD2: Recombinant protein (4 μg/ml) was incubated in 20 mM KH2PO4 pH 8.5 with 50 nM estradiol (including 800 000 cpm/ml of ^3H-estradiol) and 1 mM NADH for 30 min at RT, in the presence of the potential inhibitor at concentrations 1 μM or 0.1 μM. Inhibitor stock solutions were prepared in DMSO. Final concentration of DMSO was adjusted to 1% in all samples. The enzyme reaction was stopped by addition of 10% trichloroacetic acid (final concentration). Samples were centrifuged in a microtiter plate at 4000 rpm for 10 min. Supernatants were applied to reverse phase HPLC on a Waters Symmetry C18 column, equipped with a Waters Sentry Guard column. Isocratic HPLC runs were performed at RT at a flow rate of 1 ml/min in acetonitrile:water 48:52 as running solvent. Radioactivity was monitored in the eluate by a Packard Flow Scintillation Analyzer. Total radioactivity for estrone and estradiol were determined in each sample and percent conversion of estradiol to estrone was calculated according to the following formula:
as §1

| Compound | inhibition at 1 µM [1] [%] | inhibition at 1 µM [2] [%] |
| --- | --- | --- |
| Cc1cnc(NC(=O)CC[C@@H]2c3c[nH]nc3[C@@]3(C)CCC4c5cc(Br)c(O)c(Br)c5CCC4C23)s1 (stereo partly drawn) [Compound 54, 3-((6aS,10S)-1,3-dibromo-2-hydroxy-6a-methyl-4b,5,6,6a,8,10,10a,10b,11,12-decehydro-7,8-diaza-pentaleno[2,1-1]phenanthren-10-yl}-N-(5-methylthiazol-2-yl)propanamide] | 90 | 13 |
| CO/N=C1\C[C@@H](CCC(=O)Nc2ncc(C)s2)C2C3CCc4cc(OC(=O)CN(C)C)ccc4C3CC[C@]12C (stereo partly drawn) [Compound 101, Dimethylamino-acetic acid (13S,15R)-17[(E)-methoxyimino]-13-methyl-15-[2-(5-methylthiazol-2-ylcarbamoyl)-ethyl]-7,8,9,11,12,13,14,15,16,17-decahydro-6H-cyclopenta[a]phenanthren-3-yl ester] | 88 | 3 |
| COCC/N=C1\C[C@@H](CCC(=O)Nc2ncc(C)s2)C2C3CCc4cc(O)ccc4C3CC[C@]12C (stereo partly drawn) [Compound 122, 3-{(13S,15R)-3-Hydroxy-17-[(E)-2-methoxy-ethylimino]-13-methyl-7,8,9,11,12,13,14,15,16,17-decahydro-6H-cyclopenta[a]phenanthren-15-yl}-N-(5-methylthiazol-2-yl)propionamide] | 94 | 5 |
| CO/N=C1\C[C@@H](CCC(=O)Nc2ncc(C)s2)C2C3CCc4cc(OC)c(I)cc4C3CC[C@]12C (stereo partly drawn) [Compound 84, 3-{(13S,15R)-2-iodo-3-methoxy-17-[(E)-methoxyimino]-13-methyl-7,8,9,11,12,13,14,15,16,17-decahydro-6H-cyclopenta[a]phenanthren-15-yl}-N-(5-methylthiazol-2-yl)propanamide] | 62 | 1 |
| Cc1cnc(NC(=O)CC[C@@H]2C/C(=N\OCC(=O)O)[C@@]3(C)CCC4c5ccc(O)cc5CCC4C23)s1 (stereo partly drawn) [Compound 109, [(13S,15R)-3-Hydroxy-13-methyl-15-[2-(5-methylthiazol-2-ylcarbamoyl)-ethyl]-6,7,8,9,11,12,13,14,15,16-decahydro-cyclopenta[a]phenanthren-(17E)-ylideneaminooxy]-acetic acid] | 56 | 0 |
| CO/N=C1\C[C@@H](CCC(=O)Nc2ncc(C)s2)C2C3CCc4cc(OC)ccc4C3CC[C@]12C (stereo partly drawn) [Compound 74, 3-{(13S,15R)-3-Methoxy-17-[(E)-methoxyimino]-13-methyl-7,8,9,11,12,13,14,15,16,17-decahydro-6H-cyclopenta[a]phenanthren-15-yl}-N-(5-methylthiazol-2-yl)propanamide] | 59 | 2 |
| COc1cc2c(cc1/C(C)=N/O)C1CC[C@]3(C)/C(=N/O)C[C@@H](CCC(=O)Nc4ncc(C)s4)C3C1CC2 (stereo partly shown) [Compound 72] | 77 | 3 |
| Cc1cnc(NC(=O)CC[C@@H]2c3c[nH]nc3[C@@]3(C)CCC4c5ccc(O)c([N+](=O)[O-])c5CCC4C23)s1 (stereo partly drawn) [Compound 56, 3-((6aS,10S)-2-Hydroxy-6a-methyl-4-nitro-4b,5,6,6a,8,10,10a,10b,11,12-decehydro-7,8-diaza-pentaleno[2,1-1]phenanthren-10-yl}-N-(5-methylthiazol-2-yl)propanamide] | 97 | 39 |
| Cc1cnc(NC(=O)CC[C@@H]2C/C(=N\NC(N)=O)[C@@]3(C)CCC4c5ccc(O)cc5CCC4C23)s1 (stereo partly drawn) [Compound 112, 3-{(13S,15R)-3-Hydroxy-17-[(E)-N-urea-imino]-13-methyl-7,8,9,11,12,13,14,15,16,17-decahydro-6H-cyclopenta[a]phenanthren-15-yl}-N-(5-methylthiazol-2-yl)propanamide] | 83 | 5 |
| C=CCO/N=C1\C[C@@H](CCC(=O)Nc2ncc(C)s2)C2C3CCc4cc(O)c([N+](=O)[O-])cc4C3CC[C@]12C (stereo partly drawn) [Compound 108, 3-{(13S,15R)-17-[(E)-Allyloxyimino]-3-hydroxyl-13-methyl-2-nitro-7,8,9,11,12,13,14,15,16,17-decahydro-6H-cyclopenta[a]phenanthren-15-yl}-N-(5-methylthiazol-2-yl)propanamide] | 80 | 1 |
| Cc1cnc(NC(=O)CC[C@@H]2C(=C\O)/C(=N\O)[C@@]3(C)CCC4c5ccc(O)c(Br)c5CCC4C23)s1 (stereo partly drawn) [Compound 71, 3-{(13S,15S)-4-Bromo-3-hydroxy-17-[(Z)-hydroxyimino]-16-[1-hydroxy-meth-(E)-ylidene]-13-methyl-7,8,9,11,12,13,14,15,16,17-decahydro-6H-cyclopenta[a]phenanthren-15-yl}-N-(5-methylthiazol-2-yl)propanamide] | 82 | 7 |
| CCO/N=C1\C[C@@H](CCC(=O)Nc2ncc(C)s2)C2C3CCc4cc(O)ccc4C3CC[C@]12C (stereo partly drawn) [Compound 105, 3-{(13S,15R)-17-[(E)-Ethoxyimino]-3-hydroxy-13-methyl-7,8,9,11,12,13,14,15,16,17-decahydro-6H-cyclopenta[a]phenanthren-15-yl}-N-(5-methylthiazol-2-yl)propanamide] | 94 | 3 |
| C=CCO/N=C1\C[C@@H](CCC(=O)Nc2ncc(C)s2)C2C3CCc4cc(O)ccc4C3CC[C@]12C (stereo partly drawn) [Compound 107, 3-{(13S,15R)-17-[(E)-Allyloxyimino]-3-hydroxyl-13-methyl-7,8,9,11,12,13,14,15,16,17-decahydro-6H-cyclopenta[a]phenanthren-15-yl}-N-(5-methylthiazol-2-yl)propanamide] | 70 | 3 |
| CO/N=C1\C[C@@H](CCC(=O)Nc2ncc(C)s2)C2C3CCc4cc(OC(C)=O)ccc4C3CC[C@]12C (stereo partly drawn) [Compound 100, Acetic acid (13S,15R)-17[(E)-methoxyimino]-13-methyl-15-[2-(5-methylthiazol-2-ylcarbamoyl)-ethyl]-7,8,9,11,12,13,14,15,16,17-decahydro-6H-cyclopenta[a]phenanthren-3-yl ester] | 84 | 1 |
